Measurements reported in patent US20230241029A1, “METHODS OF REDUCING POST-SURGICAL METASTASIS” (priority 2018, published 2023).

Assays:
[1] = test system: intracellular reactive oxygen species in CD11b+LyC6+ inflammatory monocytes; conditions: sponge-bearing wild type mice; HDC 1,500 μg/mouse i.p. thrice weekly; DCFDA, one week after implantation
Method: The values were normalized against those of unwounded control mice on each collection day.
(§1) To mimic the wounding inflammation associated with surgery, sterile polyvinyl alcohol (PVA) sponges (1 cm^2 with a thickness of 2 mm) were implanted subcutaneously to wild type C57BL/6 and Nox2−/− mice (mouse strain B6.129S6-Cybbtm1Din, obtained from the Jackson Laboratory) aiming to induce tissue inflammation.
(§2) Mice received intraperitoneal injections of the NOX2-inhibitor HDC (1,500 μg/mouse) thrice weekly for 2 weeks starting two days before implantation of sponges.
One week after implantation of sponges, before injection of melanoma cells, peripheral blood was drawn from vena saphena of wild type and Nox2−/− mice. Blood cells were stained for CD11b and Ly6C using fluorochrome-conjugated antibodies and with DCFDA to detect content of intracellular reactive oxygen species. The content of CD11b+LyC6+inflammatory monocytes in blood and their levels of intracellular radicals was determined using flow cytometry.

B16F10 melanoma cells = conditions: wild type mice with PVA sponges; HDC 1,500 μg/mouse i.p. thrice weekly for 2 weeks; foci counted 3 weeks after B16F10 injection; p<0.0001, n=10
Method: as §1, §2

Cl.Cl.NCCc1c[nH]cn1 [HDC, histamine dihydrochloride]
ROS levels in blood inflammatory monocytes [1]: trend towards reduced ROS levels | formation of metastases (metastatic foci in lungs) during surgical/wounding-induced inflammation (B16F10 melanoma cells): significantly reduced
